# From US5192786A, “Substituted biphenylalkoxyamines” (Ortho Pharmaceutical Corporation, priority 1990, dated 1993)
# Counter-ions that a name gives are not always drawn. Like-named read-outs stand apart in the source and are kept apart here.
# Assays:
# [1] = tested on: cAMP stimulated parietal cell; assay: Isolated parietal cell assay, inhibition of 14C-aminopyrine accumulation, dibutyryl cAMP stimulated; assay type: cell-based, rabbit; conditions: Oryctolagus cuniculus, 20 min, read-out: Isolated Parietal Cells IC50 vs cAMP
# Description: (§1) The isolated parietal cell assay was conducted using the procedures of Batzri, S. et al., Biochemica et Biophysica Acta 508, 328 (1978) and Soll, A.H. Am. J. Physiol. 238, G366 (1980). Basically, parietal cells were isolated from the fundic mucosa of rabbit stomachs by a four-stage collagenase digestion process. The supernatant fractions from the last two stages of this process contain the individual parietal cells. This cell suspension was centrifuged and reconstituted in a modified Hank's buffer to contain 1-2×10^6 cells/ml. […] This accumulation was stimulated by histamine and was blocked by H2 antagonists. The cells were incubated with 0.4-0.5×10^6 cpm ^14 C-AP, with various concentrations of histamine as a stimulant, 1×10^-5 M isobutylmethylxanthine, and the test compound added in a 20 μl volume of buffer or DMSO. The flasks were incubated in a shaking water bath at 37° C. for 20 minutes. Two aliquots were then taken from each flask and cell pellets were collected by centrifugation. The pellets were solubilized with Protosol (New England Nuclear) and radioactivity determined by liquid scintillation spectrometry. Data are presented as the IC50 vs hist, the concentration of compound required to inhibit ^14 C-AP accumulation in the histamine stimulated parietal cell by 50%.
# When dibutyryl cAMP was used to stimulate the cells instead of histamine, a similar inhibition of ^14 C-AP accumulation was measured and the data are presented as the IC50 vs cAMP, the concentration of compound required to inhibit ^14 C-AP accumulation in the cAMP stimulated parietal cell by 50%.
# [2] = tested on: histamine stimulated parietal cell; assay: Isolated parietal cell assay, inhibition of 14C-aminopyrine accumulation, histamine stimulated; assay type: cell-based, rabbit; conditions: Oryctolagus cuniculus, 20 min, read-out: Isolated Parietal Cells IC50 vs his
# Description: as §1
# [3] = In vivo antisecretory activity, gastric secretion in pylorus ligated rats (acid output); design: species or system male Charles River Sprague Dawley derived rats; conditions: Rattus norvegicus, 4 h; 20 mpk, po; four hours after ligation; read-out: Pylorous Ligated Rats, effect on acid output compared to control
# [4] = tested on: Trichophyton mentagrophytes; assay: In vitro antimicrobial activity, minimal inhibitory concentration (agar dilution), Trichophyton mentagrophytes; assay type: cell-based, Trichophyton mentagrophytes ATC 22839; conditions: Mueller Hinton agar, 32° C., 48 hours, complete inhibition of growth
# Description: (§2) A 0.5 mg/ml stock solution of each Example compound was prepared in an appropriate solvent. From this stock, dilutions were prepared in solvent, and 0.2 ml aliquots of the stock and dilutions were added to tubes containing 19.8 ml of Mueller Hinton agar (46°-50° C.). The mixtures were poured into 100 by 15 mm petri dishes and allowed to solidify.
# (§3) The test organisms (Candida albicans ATC 10231 and Trichophyton mentagrophytes ATC 22839) were diluted from frozen stock cultures. Inocula were diluted with sterile solution containing 0.1% peptone in water to contain approximately 2×10^5 […] (CFUs) per ml. Plate counts were performed on 1 mL of all inocula.
# (§4) Each plate and unadulterated agar growth control was inoculated with the inocula prepared above using a Steer's Replicator method. Plates were then incubated at 32° C. Observations for growth were made at 48 hours.
# (§5) The results of this test are reported below in Table 1 as compared to the known antifungal agents, miconazole nitrate and terconazole.
# [5] = In vivo anticonvulsant activity, Antielectroshock; design: species or system Male CD1 mice; key: +: Active; ±: Active, but weak; -: Inactive at this dose; conditions: p.o.; for Anticonvulsant profile, Antielectroshock (100): 100 mg/kg; for Anticonvulsant profile, Antielectroshock (10): 10 mg/kg
# [6] = tested on: Candida albicans; assay: In vitro antimicrobial activity, minimal inhibitory concentration (agar dilution), Candida albicans; assay type: cell-based, Candida albicans ATC 10231; conditions: read-out: Minimal inhibitory concentration, Candida albicans
# Description: as §2, §3, §4, §5
# [7] = In vivo anticonvulsant activity, Antimetrazol (pentylenetetrazol-induced convulsions); design: species or system Male CD1 mice; key: +: Active; ±: Active, but weak; -: Inactive at this dose; conditions: p.o., 125 mg/kg pentylenetetrazol s.c. challenge; for Anticonvulsant profile, Antimetrazol (100): 100 mg/kg; for Anticonvulsant profile, Antimetrazol (10): 10 mg/kg
# Description: Male CD1 mice, fasted at least 16 hours, were divided into groups of 10 and test compounds or vehicle were administered orally by gavage. The vehicle used was 0.5% aqueous methylcellulose solution containing 0.4% (v/v) of Tween 80. One hour later (or at time of suspected peak activity), the mice were challenged with 125 mg/kg of pentylenetetrazol, administered subcutaneously. Pentylenetetrazol was dissolved in 0.9% sodium chloride solution, and the dosage volume for administration of test compounds or the convulsant challenge was 10 ml/kg. Animals were housed individually for observation of convulsions for a period of 30 minutes.
# Pentylenetetrazol-induced convulsions in vehicle-treated mice consist of mixed-clonic/tonic seizures. Tonic hindlimb extension and death are terminal consequences. Test compounds that block the hindlimb tonic extensor component of the convulsions in at least 50% of treated mice were considered active. ED50 values of active compounds may be calculated by the method of probits (Finney, 1971).
# [8] = General CNS Behavior; assay type: in vivo, Male CD1 mice; conditions: 100 mg/kg, p.o.
# [9] = dibutyryl cAMP stimulated, 14C-aminopyrine accumulation, 37° C., 20 minutes
# [10] = histamine stimulated, 14C-aminopyrine accumulation, 37° C., 20 minutes
# [11] = Mueller Hinton agar, 32° C., 48 hours, complete inhibition of growth
smiles,measurement,setting,value
"CN/C(=N/CCSCc1nc[nH]c1C)NC#N [Cimetidine, cimetidine, reference compound]",IC50,[1],> 100000 nM
same,IC50,[2],820 nM
"C(=C\c1ccc(OCCCCn2ccnc2)cc1)/c1ccccc1 [Example 1, hydrochloride]",change in vivo at 20 mg/kg,[3],-32%
same,MIC,[4],50 µg/mL
same,IC50,[1]; [9],450 nM
same,IC50,[2]; [10],450 nM
same,"Anticonvulsant profile, Antielectroshock (100)",[5],-
same,MIC,[6]; [11],> 50 µg/mL
same,"Anticonvulsant profile, Antimetrazol (100)",[7],-
"C(=C\c1ccc(OCCCn2ccnc2)cc1)/c1ccccc1.Cl [Example 2, (E)-4-(1H-Imidazol-1-yl)propoxystilbene hydrochloride]",change in vivo at 20 mg/kg,[3],-4%
same,MIC,[4],10 µg/mL
same,IC50,[1]; [9],270 nM
same,IC50,[2]; [10],160 nM
same,"Anticonvulsant profile, Antielectroshock (10)",[5],-
same,"Anticonvulsant profile, Antielectroshock (100)",[5],+
same,MIC,[6]; [11],> 50 µg/mL
same,"Anticonvulsant profile, Antimetrazol (10)",[7],-
same,"Anticonvulsant profile, Antimetrazol (100)",[7],+
"CCCN(CCC)CCCOc1ccc(/C=C/c2cccc(OC)c2)cc1 [Example 3, (E)-3'-Methoxy-4-dipropylamino-propoxystilbene hydrochloride]",change in vivo at 20 mg/kg,[3],-92%
same,MIC,[4],50 µg/mL
same,IC50,[1]; [9],110 nM
same,IC50,[2]; [10],100 nM
same,"Anticonvulsant profile, Antielectroshock (100)",[5],-
same,MIC,[6]; [11],50 µg/mL
same,"Anticonvulsant profile, Antimetrazol (10)",[7],-
same,"Anticonvulsant profile, Antimetrazol (100)",[7],+
"Clc1cccc(/C=C/c2ccc(OCCCCn3ccnc3)cc2)c1 [Example 5, hydrochloride]",change in vivo at 20 mg/kg,[3],-12%
same,MIC,[4],> 50 µg/mL
same,IC50,[1]; [9],100 nM
same,IC50,[2]; [10],180 nM
same,MIC,[6]; [11],> 50 µg/mL
"Cl.c1ccc(-c2ccc(OCCCCn3ccnc3)cc2)cc1 [Example 6, 1-(1H-Imidazol-1-ylbutoxy)-4-phenylbenzene hydrochloride]",change in vivo at 20 mg/kg,[3],-24%
same,MIC,[4],1 µg/mL
same,IC50,[1]; [9],160 nM
same,IC50,[2]; [10],170 nM
same,General CNS Behavior,[8],Wk CNS Depr
same,"Anticonvulsant profile, Antielectroshock (10)",[5],-
same,"Anticonvulsant profile, Antielectroshock (100)",[5],±
same,MIC,[6]; [11],1 µg/mL
same,"Anticonvulsant profile, Antimetrazol (10)",[7],-
same,"Anticonvulsant profile, Antimetrazol (100)",[7],±
"CCCN(CCC)CCCCOc1ccc(-c2ccccc2)cc1.Cl [Example 7, 1-(Dipropylaminobutoxy)-4-phenylbenzene hydrochloride]",change in vivo at 20 mg/kg,[3],-45%
same,MIC,[4],1 µg/mL
same,IC50,[1]; [9],260 nM
same,IC50,[2]; [10],120 nM
same,"Anticonvulsant profile, Antielectroshock (10)",[5],-
same,"Anticonvulsant profile, Antielectroshock (100)",[5],±
same,MIC,[6]; [11],50 µg/mL
same,"Anticonvulsant profile, Antimetrazol (10)",[7],-
same,"Anticonvulsant profile, Antimetrazol (100)",[7],±
"Cl.c1ccc(-c2ccc(OCCCn3ccnc3)cc2)cc1 [Example 8, 1-(1H-Imidazol-1-ylpropoxy)-4-phenylbenzene hydrochloride]",change in vivo at 20 mg/kg,[3],-33%
same,MIC,[4],1 µg/mL
same,IC50,[1]; [9],320 nM
same,IC50,[2]; [10],230 nM
same,General CNS Behavior,[8],Wk CNS Depr
same,"Anticonvulsant profile, Antielectroshock (10)",[5],-
same,"Anticonvulsant profile, Antielectroshock (100)",[5],±
same,MIC,[6]; [11],1 µg/mL
same,"Anticonvulsant profile, Antimetrazol (10)",[7],-
same,"Anticonvulsant profile, Antimetrazol (100)",[7],±
"Cl.c1ccc(-c2ccc(OCCCCCn3ccnc3)cc2)cc1 [Example 9, 1-(1H-Imidazol-1-ylpentoxy)-4-phenylbenzene hydrochloride]",change in vivo at 20 mg/kg,[3],-54%
same,MIC,[4],10 µg/mL
same,IC50,[1]; [9],110 nM
same,IC50,[2]; [10],90 nM
same,"Anticonvulsant profile, Antielectroshock (10)",[5],-
same,MIC,[6]; [11],50 µg/mL
"c1ccc(-c2ccc(OCCCCCn3cncn3)cc2)cc1 [Example 10, hydrochloride]",MIC,[4],10 µg/mL
same,IC50,[1]; [9],< 10000 nM
same,IC50,[2]; [10],< 10000 nM
same,MIC,[6]; [11],> 50 µg/mL
"Cl.O=C(c1ccc(Cl)cc1)c1ccc(OCCCn2ccnc2)cc1 [Example 11, 4'-Chloro-4-(1H-imidazol-1-ylpropoxy) benzophenone hydrochloride]",change in vivo at 20 mg/kg,[3],-35%
same,MIC,[4],1 µg/mL
same,IC50,[1]; [9],280 nM
same,IC50,[2]; [10],280 nM
same,"Anticonvulsant profile, Antielectroshock (100)",[5],-
same,MIC,[6]; [11],> 50 µg/mL
same,"Anticonvulsant profile, Antimetrazol (100)",[7],-
"c1ccc(Cc2ccc(OCCCn3ccnc3)cc2)cc1 [Example 12, 1-[4-(1H-Imidazol-1-ylpropoxyphenyl)-1-phenylmethane hydrochloride]",change in vivo at 20 mg/kg,[3],-51%
same,MIC,[4],10 µg/mL
same,IC50,[1]; [9],300 nM
same,IC50,[2]; [10],140 nM
same,General CNS Behavior,[8],Mod CNS Depr
same,"Anticonvulsant profile, Antielectroshock (10)",[5],-
same,"Anticonvulsant profile, Antielectroshock (100)",[5],+
same,MIC,[6]; [11],50 µg/mL
same,"Anticonvulsant profile, Antimetrazol (10)",[7],-
same,"Anticonvulsant profile, Antimetrazol (100)",[7],+
"Clc1ccc(COC(Cn2ccnc2)c2ccc(Cl)cc2Cl)c(Cl)c1 (stereo not drawn) [Miconazole Nitrate, miconazole nitrate, reference compound]",MIC,[4],5 µg/mL
same,MIC,[6]; 48 h,1 µg/mL
"CNC(=C[N+](=O)[O-])NCCSCc1ccc(CN(C)C)o1 [Ranitidine, ranitidine, reference compound]",IC50,[1]; [9],> 100000 nM
same,IC50,[2]; [10],40 nM
"CC(C)N1CCN(c2ccc(OCC3COC(Cn4cncn4)(c4ccc(Cl)cc4Cl)O3)cc2)CC1 (stereo not drawn) [Terconazole, terconazole, reference compound]",MIC,[4],50 µg/mL
same,MIC,[6]; [11],0.1 µg/mL
